Results as given in patent US20160282364A1, “ASSAY FOR INSULIN-DEGRADING ENZYME (IDE) INHIBITORS” (PRESIDENT AND FELLOWS OF HARVARD COLLEGE, priority 2013, published 2016).
One block for each compound: values may come before it.

Key:
DIO mice = assay: Plasma hormone measurements and liver RT-PCR post-IPGTT; assay type: in vivo, mouse
Experimental: Trunk blood was obtained for plasma hormone measurements using the Multiplexed Mouse Metabolic Hormone panel (Milliplex, EMD Millipore) on a Luminex FlexMap 3D instrument. Gastric emptying was measured by dissection of stomachs 30 min after an oral glucose bolus (3.0 g/kg, 10 mL/kg) in sterile saline containing 0.1 mg/mL phenol red.
Total RNA was isolated from liver samples (˜100 mg) using TRIzol (Invitrogen) and purified using an RNeasy® kit (Qiagen) and on-column DNAse treatment (Qiagen). Reverse transcription was performed with oligo(dT) primers using SuperScript III (Life Technologies). RT-PCR was performed with two primer pairs per target normalized against tubulin and beta-actin transcripts (ΔΔCT method).
Blood collection and plasma hormone measurements. Blood was collected in EDTA-coated tubes (BD Microtainer®) from trunk bleeding (˜500 μL) after CO2-euthanasia for all hormone assays. The plasma was immediately separated from red blood cells by centrifugation 10 min at 1800 g, aliquoted, frozen over dry ice and stored at −80° C. […] Values are reported as mean±S.E.M. Statistics were performed using a two-tail Student's t-test, and significance levels shown in the figures are *p<0.05 versus vehicle control group or **p<0.01 versus vehicle control group.
RT-PCR analysis of liver gluconeogenesis markers phosphoenolpyruvate carboxykinase (PEPCK) and glucose-6-phosphatase (G6Pase). Total RNA was isolated from liver samples (˜100 mg) using TRIzol® reagent (Invitrogen, 1 mL/100 mg sample), followed by spin-column purification (RNeasy® kit, Qiagen) and on-column DNAse treatment (Qiagen) according to the manufacturer's instructions. RNA concentrations were determined by UV spectrophotometry (NanoDrop). One microgram of total RNA was used for reverse transcription with oligo(dT) primers (SuperScript® III First-Strand Synthesis SuperMix, Life Technologies) according to the manufacturer's instructions. Quantitative PCR reactions included 1 μL of cDNA diluted 1:100, 0.4 μM primers, 2× SYBR Green PCR Master Mix (Invitrogen) in 25 μL total volume, and were read out by a CFX96TM Real-Time PCR Detection System (BioRad). Transcript levels were determined using two known primer pairs^18,19 for each gene of interest (Table 6), which were normalized against tubulin and beta-actin transcripts (ΔΔCT method), and expressed relative to the lowest sample. Duplicate control assays without reverse transcriptase treatment were run for each RNA preparation and primer set used. Statistics were performed using a two-tail Student's t-test, and significance levels shown in the figures are *p<0.05 versus vehicle control group or **p<0.01 versus vehicle control group.

hIDE Y314F = target: T1, hIDE Y314F (Homo sapiens, UniProt P14735, Y314F); assay: Small molecule-enzyme mutant complementation study; assay type: biochemical; settings: Y314F vs hIDE WT, batch 2
T1 construct: The reported N-His6-tagged human IDE42-1019 construct; made in house; host or cells: E. coli Rosetta 2 (DE3) pLysS
Excerpt: Protease assays with fluorogenic peptide substrates. […] All assay data points were obtained in duplicate.
Site-directed mutagenesis, expression, and purification of human IDE. The reported N-His6-tagged human IDE42-1019 construct was introduced in the expression plasmid pTrcHis-A (Invitrogen) using primers for uracil-specific excision reactions (USER) by Taq (NEB) and Pfu polymerases (PfuTurbo CX®, Agilent). The IDE gene was amplified with the primers 5′-[…]-dU-[…] and 5′-[…] G-dU-[…] (underlined sequences represent overhangs, and italics highlight the PCR priming sequence). Similarly, the pTrcHis-A vector was amplified for USER cloning with the primers 5′-[…] TGA-dU-[…] CCC and 5′-[…]-dU-[…]. Mutant IDE constructs were generated by amplifying the full vector construct with USER cloning primers introducing a mutant overhang (Table 5).
All PCR products were purified on microcentrifuge membrane columns (MinElute®, Qiagen) and quantified by UV absorbance (NanoDrop). Each fragment (0.2 pmol) was combined in a 10 μL reaction mixture containing 20 units DpnI (NEB), 0.75 units of USER mix (Endonuclease VIII and Uracil-DNA Glycosylase, NEB), 20 mM Tris-acetate, 50 mM potassium acetate, 10 mM magnesium acetate, 1 mM dithiothreitol at pH 7.9 (1× NEBuffer 4). The reactions were incubated at 37° C. for 45 min, followed by heating to 80° C. and slow cooling to 30° C. (0.2° C./s). The hybridized constructs were directly used for heat-shock transformation of chemically competent NEB turbo E. coli cells according to the manufacturer's instructions. Transformants were selected on carbenicillin LB agar, and isolated colonies were cultured overnight in 2 mL LB.
The plasmid was extracted using a microcentrifuge membrane column kit (Miniprep®, Qiagen), and the sequence of genes and vector junctions were confirmed by Sanger sequencing (Table 6). The plasmid constructs were transformed by heat-shock into chemically-competent expression strain Rosetta 2 (DE3) pLysS E. coli cells (EMD Millipore), and selected on carbenicillin/chloramphenicol LB agar. Cells transformed with IDE pTrcHis A constructs were cultured overnight at 37° C. in 2 XYT media (31 g in 1 L) containing 100 μg/mL ampicillin and 34 μg/mL chloramphenicol. Expression of His6-tagged IDE proteins was induced when the culture measured OD600 ˜0.6 by addition of isopropyl-β-D-1-thiogalactopyranoside (IPTG) to 1 mM final concentration, incubated overnight at 37° C., followed by centrifugation at 10,000 g for 30 min at 4° C.
Recombinant His6-tagged proteins were purified by Ni(II)-affinity chromatography (IMAC sepharose beads, GE Healthcare®) according to the manufacturer's instructions. The cell pellets were resuspended in pH 8.0 buffer containing 50 mM phosphate, 300 mM NaCl, 10 mM imidazole, 1% Triton X-100 and 1 mM tris(2-carboxyethyl)phosphine hydrochloride (TCEP), and were lysed by probe sonication for 4 min at 4° C., followed by clearing of cell debris by centrifugation at 10,000 g for 25 min at 4° C. The supernatant was incubated with Ni(II)-doped IMAC resin (2 mL) for 3 h at 4° C. The resin was washed twice with the cell resuspension/lysis buffer, and three times with pH 8.0 buffer containing 50 mM phosphate, 300 mM NaCl,50 mM imidazole and 1 mM TCEP. Elution was performed in 2 mL aliquots by raising the imidazole concentration to 250 mM and subsequently to 500 mM in the previous buffer. The fractions were combined and the buffer was exchanged to the recommended IDE buffer (R&D) using spin columns with 100 KDa molecular weight cut off membranes (Millipore). Protein yields were typically ˜10 μg/L, and >90% purity based on gel electrophoresis analysis (Coomassie stained).

[1] = DIO liver, 135 min post-IPGTT, vs vehicle
[2] = DIO mice, 20 minutes post-glucose injection, vs vehicle

T1 sequence (P14735 42-1019 Y314F): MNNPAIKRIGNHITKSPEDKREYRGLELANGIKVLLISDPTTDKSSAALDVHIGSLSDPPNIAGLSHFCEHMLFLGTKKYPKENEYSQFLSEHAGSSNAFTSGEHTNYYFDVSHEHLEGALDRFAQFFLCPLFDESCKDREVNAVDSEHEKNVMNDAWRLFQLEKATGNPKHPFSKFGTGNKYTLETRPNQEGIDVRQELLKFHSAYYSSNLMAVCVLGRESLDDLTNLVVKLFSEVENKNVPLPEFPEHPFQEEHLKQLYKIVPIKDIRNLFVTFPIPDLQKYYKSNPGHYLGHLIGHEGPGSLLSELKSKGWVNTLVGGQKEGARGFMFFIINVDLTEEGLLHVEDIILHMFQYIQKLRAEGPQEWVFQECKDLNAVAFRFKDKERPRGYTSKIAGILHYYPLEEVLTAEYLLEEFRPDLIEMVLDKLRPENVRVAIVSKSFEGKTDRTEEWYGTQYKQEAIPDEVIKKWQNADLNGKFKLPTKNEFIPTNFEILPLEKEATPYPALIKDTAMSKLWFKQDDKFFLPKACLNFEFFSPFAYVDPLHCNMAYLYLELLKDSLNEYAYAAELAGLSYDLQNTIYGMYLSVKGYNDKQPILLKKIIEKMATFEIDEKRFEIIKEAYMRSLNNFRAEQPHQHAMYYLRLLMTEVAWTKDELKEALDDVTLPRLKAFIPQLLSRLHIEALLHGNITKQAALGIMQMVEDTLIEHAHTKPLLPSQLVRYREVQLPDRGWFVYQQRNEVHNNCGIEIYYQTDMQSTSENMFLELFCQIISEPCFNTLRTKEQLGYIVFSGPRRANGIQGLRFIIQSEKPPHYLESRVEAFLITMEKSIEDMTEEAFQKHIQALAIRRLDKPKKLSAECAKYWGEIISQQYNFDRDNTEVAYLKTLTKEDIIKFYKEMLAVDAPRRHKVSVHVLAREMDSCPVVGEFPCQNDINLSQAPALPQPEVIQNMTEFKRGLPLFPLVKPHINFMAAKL

SMILES: NCCCC[C@@H]1NC(=O)/C=C/C(=O)N[C@H](C(N)=O)CCCCNC(=O)[C@@H](Cc2ccc(C(=O)c3ccccc3)cc2)NC(=O)[C@H](CC2CCCCC2)NC1=O [Compound 6bK]
higher glucose-6-phosphatease (G6Pase) transcript levels (DIO mice; [1]): 50%
lower phosphoenolpyruvate carboxykinase (PEPCK) transcript levels (DIO mice; [1]): 30%
liver G6Pase expression (DIO mice; DIO mice post-IPGTT, vs control): elevated
plasma amylin levels (DIO mice; [2]): elevated
plasma glucagon levels (DIO mice; [2]): unchanged
plasma insulin levels (DIO mice; [2]): elevated
plasma glucagon levels (DIO mice; DIO mice, 130 min post-injection, hyperglycemic rebound): above 200 pg/mL

IC50 shift (hIDE Y314F): 1.2 fold
SMILES: NC(=O)CCC1NC(=O)C=CC(=O)NC(C(N)=O)CCCCNC(=O)C(Cc2ccc(C(=O)c3ccccc3)cc2)NC(=O)C(CC2CCCCC2)NC1=O (centres unmarked) [Compound 6b]
